This is an account of results in patent publication US7166688B1, “Chelation compositions” (LidoChem, Inc., priority 2000, dated 2007).

Series [1] can be described thus: Zinc chelation, clear solution / precipitate test. The class given is physicochemical. The method, then: In 25 ml of water 1 gram of zinc sulfate was added. Once the zinc sulfate was in solution, 30 ml of the N,N-diethanolsuccinamide amino ethanol solution produced in Example 17 was added and the pH of the blend was adjusted to 9.5. Then 1 gram of potassium phosphate was added tho the mixture.
In a separate flask 25 ml of water, 1 gram of zinc sulfate and 1 gram of potassium phosphate were blended together. Immediately a white precipitate formed.
In 400 ml of water, 20 ml of a 17% zinc nitrate solution were added and 60 ml of the product from example 28 were added. With mechanical stirring, 40 grams of monopotassium phosphate were added to the mix. The pH of the solution was then adjusted to 2 with HCl. The pH of the solution was then gradually raised with the addition of Monoethanolamine to a pH of 9.
A nine percent chelated zinc solution was prepared by blending 50 ml of water with 22.4 grams zinc oxide. Concentrated HCl was added until the solution was clear. Once in solution, 125 grams of the compound produced in Example 10 was added. […] This chelated zinc solution is suitable for blending with phosphorus fertilizers 2-ethanolaminesuccinic-N-ethanolsuccinicamide (tri potassium salt) has the following formula: […]
Ten ml of 17% zinc solution were added to a liter of water. Later 20 grams of potassium phosphate were added and dissolved. Zinc phosphate formed a precipitate. Phosphorous acid was then added to lower the pH and clear the solution. Once clear 30 ml of the solution prepared in example 35 was added. This acidic solution, which was acidic, then remained undisturbed for a day, after which the pH was adjusted to 10 with the addition of MEA.

Series [2] is described as follows: Iron chelation, clear solution / precipitate test. To be noted: for appearance of solution / precipitates: 500 ml water, 10 ml 1.8 M ferric nitrate, pH 10, 10 grams potassium phosphate. In kind it is physicochemical. The method, then:
A five percent chelated iron solution was prepared by blending 18 ml of water with 100 grams of a (10% Fe) ferric nitrate solution. Once in solution, 82 grams of the compound produced in Example 10 was added.
In 25 ml of water, 20 ml of a 1.8M ferric nitrate was added. Once in solution, 30 ml of the diethanolsuccinamide amino ethanol solution produced in Example 17 was added and the pH of the blend was adjusted to 9.2. Then 1 gram of potassium phosphate was added to the mixture.
Five drops of 1.8 M ferric nitrate were added to one liter of water and mechanically blended. Then 10 grams of potassium phosphate were added to the solution and allowed to form insoluble potassium salts.
In 400 ml of water, 20 ml of a 10% ferric nitrate solution were added, and 20 ml of the product from example 25 were added. With mechanical stirring, 40 grams of monopotassium phosphate was added the mix. The pH of the solution was then adjusted to 2 with HCl. The pH of the solution was then gradually raised with the addition of base to a pH of 10.
In 400 ml of water, 10 ml of 1.8 M ferric nitrate solution were added and 20 ml of the product from example 28 were added. With mechanical stirring, 20 grams of monopotassium phosphate was added to the mix. The pH of the solution was then adjusted to 2 with HCL. The pH of the solution was then gradually raised with the addition of Monoethanolamine to a pH of 10.
To a beaker containing one liter of water, 20 grams of potassium phosphate were added to form a clear solution.
Thirty grams of 1.8 M ferric nitrate were added to 100 ml of water. The pH of the solution was lowered to 4 with phosphorous acid, and then 5 grams of Potassium phosphate were then added to the blend. Later 30 ml of the solution produced in example 29 was added.
One hundred ml of the solution prepared in Example 41 was added to 500 ml of water and blended. 10 ml of 1.8-M ferric nitrate was then added to the mixture. […] The potassium salt of maleic acid was tested as a chelating agent.
In a separate flask 20 grams of maleic anhydride were blended in 500 ml of water. Potassium hydroxide was then added to the blend to raise the pH to 10. Later ten ml of 1.8M ferric nitrate was added to the mix and 10 grams of potassium phosphate was also blended in. […] The contents of the flask were then blended again while MEA was added to the mix.

Series [3] is described as follows: Copper chelation, clear solution / precipitate test. In kind it is physicochemical. The conditions noted are these: five percent chelated copper solution: 19 grams basic copper sulfate in 100 ml water, HCl, 71 grams compound; pH of 5. As for the experimental part:
A five percent chelated copper solution was prepared by blending 19 grams of basic copper sulfate in 100 ml of water. Concentrated HCl was added to solubilize the copper. Once in solution, 71 grams of the compound produced in Example 10 was added. […] This chelated copper solution is suitable for blending with phosphorus fertilizers.
In 250 ml of water 1 gram of copper sulfate was added and mechanically stirred. To this solution, 10 ml of the diethanolsuccinamide-amino ethanol solution produced in Example 17 was added. The pH of the blend was adjusted to 8.4 and 1 gram of potassium phosphate was added the mixture.
In another flask, 1 gram of copper sulfate was added to 250 ml of water and mechanically blended. Then, 1 gram of potassium phosphate was added to the blend. The pH of the solution was adjusted with potassium hydroxide. Immediately a powder solid was formed and precipitated. The hydroxide and phosphate salts of copper were formed.
In 400 ml of water, 1 gram of copper sulfate was added and 10 ml of the product from example 28 were added. With mechanical stirring, 20 grams of monopotassium phosphate were added to the mix. The pH of the solution was then adjusted to 2 with HCl. The pH of the solution was then gradually raised with the addition of Monoethanolamine to a pH of 9.
Two grams of basic copper sulfate were added to 200 ml of water. […]

Series [4] can be described thus: Manganese chelation, clear solution / precipitate test. The class given is physicochemical. The conditions noted are these: five percent chelated manganese solution: 18 ml water, 58 grams (17% Mn) manganese nitrate solution, 82 grams compound; pH of 5. As for the experimental part:
In 25 ml of water 10 ml of a manganese nitrate solution was added. Once the manganese nitrate was in solution, 30 ml of the N,N-diethanolsuccinamide amino ethanol solution produced in Example 17 was added to the mixture and the pH of the blend was adjusted to 6. Then 1 gram of potassium phosphate was added to the mixture.
A five percent chelated manganese solution was prepared by blending 18 ml of water with 58 grams of a (17% Mn) manganese nitrate solution. Once the manganese nitrate was in solution, 82 grams of the compound produced in Example 10 was added. […] This chelated manganese solution is suitable for blending with phosphorus fertilizers.

For series [5], the system named is Corn. In words: Soil applied IDS chelated minerals with 10-34-0, tissue analysis, corn. The class given is in vivo. The method, then: (§1) An experimental trial was completed testing the efficacy of the Iminodisuccinates (IDS) of this invention on five different crops. Below is the protocol and tissue analysis for both soil and foliar applied iminodisuccinate chelated mineral salts.
(§2) A). The control pots were watered without any further treatments.
(§3) B). An ammonium polyphosphate stock solution was prepared by adding 50 ml of the 10-34-0 to 4000 ml of water. Treated plants received 100 ml of the stock solution.
(§4) (C). The Zinc stock solution was prepared by blending 10 ml of IDS chelated 9% Zinc to a blend of 50 ml of 10-34-0 with 4000 ml of water. Treated plants received 100 ml of the zinc stock solution.
(§5) (D). The mixture of IDS chelated micronutrients was prepared by adding 4 ml of 9% Zinc, 1 ml of 5% Copper, 1 ml of 5% manganese, and 1 ml of 5% Iron. This mixture was then blended with 4000 ml of water and 50 ml of 10-34-0.
(§6) All plants were sprayed until wet. Harvested material was placed in an oven for one day and sent to the lab for tissue analysis. Harvesting occurred thirty days after planting and some plants had not grown enough to get complete lab results reported. The harvested corn plants were cut at the whirl to insure only new leaves would be tested. The soybeans were clipped above the cotyledon. The alfalfa and clover were removed from the soil and the roots were removed. The wheat was cut at the tillering node.

Series [6] deals with Soybean. In words: Foliar applied IDS chelated minerals, tissue analysis, soybeans. The class given is in vivo. The method, then:
as §1
(§7) A stock solution for foliar application was prepared by blending 6000 ml of water with T-DAT 09, (Harcross Chemical Company, USA) a surfactant, added to spray mix at 2 drops per liter. • 1). 5 ml of 9% zinc was added to 1 liter of stock solution. • 2). 5 ml of 5% copper was added to 1 liter of stock solution. • 3). 5 ml of 5% manganese was added to 1 liter of stock solution. • 4). 5 ml of 5% Iron was added to 1 liter of stock solution. • 5). 4 ml of 9% zinc, 1 ml of 5% copper, 1 ml of 5% manganese, and 1 ml of 5% iron was added to 1 liter of stock solution. • 6). Stock solution without further addition.
as §6

The test system of series [7] is Clover. In words: Soil applied IDS chelated minerals with 10-34-0, tissue analysis, clover. The class given is in vivo. The method, then:
as §1, §2, §3, §4, §5, §6

The test system of series [8] is Wheat. The series can be described thus: Soil applied IDS chelated minerals with 10-34-0, tissue analysis, wheat. In kind it is in vivo. The method, then:
as §1, §2, §3, §4, §5, §6

Series [9] concerns Clover. The series can be described thus: Foliar applied IDS chelated minerals, tissue analysis, clover. In kind it is in vivo. The method, then:
as §1, §7, §6

Series [10] concerns Corn. The series can be described thus: Foliar applied IDS chelated minerals, tissue analysis, corn. The class given is in vivo. As for the experimental part: as §1, §7, §6
The test system of series [11] is Soybean. In words: Soil applied IDS chelated minerals with 10-34-0, tissue analysis, soybeans. The class given is in vivo. The method, then: as §1, §2, §3, §4, §5, §6
Series [12] relates to Wheat. In words: Foliar applied IDS chelated minerals, tissue analysis, wheat. In kind it is in vivo. As for the experimental part: as §1, §7, §6

For “2-ethanolaminesuccinic-N-ethanolsuccinicamide [Example 10]”, the “appearance of finished solution / precipitates” value in series [1] (nine percent chelated zinc solution: 22.4 grams zinc oxide in 50 ml water, HCl, 125 grams compound, pH of 5) is “clear and free of precipitates”; in series [2] (five percent chelated iron solution: 18 ml water, 100 grams (10% Fe) ferric nitrate solution, 82 grams compound, pH of 5), “clear and free of precipitates”; in series [3], “free of precipitates”; in series [4] it was “clear and free of precipitates”.
`O=C([O-])/C=C\C(=O)[O-].[K+].[K+]` [potassium salt of maleic acid, reference compound]: the “appearance of solution / precipitates” value in [2] is listed as “a rust colored solid precipitated”.
As to `O=C([O-])CC(C(=O)[O-])N(CCO)C(CC(=O)[O-])C(=O)[O-].[K+].[K+].[K+].[K+]` (stereo not shown) [Example 35, N,N-disuccinic-amino-ethanol tetra potassium salt], the “appearance of solution / precipitates” value in [1] (10 ml 17% zinc solution and 20 grams potassium phosphate in a liter of water, phosphorous acid, 30 ml solution, after a day pH 10 with MEA) is “remained clear, free of precipitates, and colorless”. Further, the “redissolution of precipitated ferric phosphate” value in [2] (20 grams potassium phosphate and 10 grams 1.8 M ferric solution in one liter water, 2.4 grams of the 0.75 M solution added) is “a clear yellow solution was produced inmediately”.
Consider ZINC, for which the “zinc in plant tissue, TREATED” value with Corn [5] (soil applied with 10-34-0, harvested 30 days after planting, control 24) is listed as 69.6; in the series on Soybean [6] (harvested 30 days after planting, control 63.8) it was 1000 parts per million; in the series on Clover [7] (soil applied with 10-34-0, harvested 30 days after planting, control 53.4), 231; in the series on Wheat [8] (soil applied with 10-34-0, harvested 30 days after planting, control 39) it was 93.1; with Clover [9] (harvested 30 days after planting, control 56.7), 1264 parts per million; in the series on Corn [10] (harvested 30 days after planting, control 15.6) it was 792 parts per million. In addition, the “zinc in plant tissue, TREATED” value with Soybean [11] (soil applied with 10-34-0, harvested 30 days after planting, control 19.4) was determined as 136; in the series with Wheat [12] (harvested 30 days after planting, control 44.3), 563 parts per million. For the same molecule, the “zinc in plant tissue, CHANGE” value worked out at 45.6 with Corn [5] (soil applied, treated minus control 24); 936.2 parts per million in the series with Soybean [6] (treated minus control 63.8); 177.6 with Clover [7] (soil applied, treated minus control 53.4); 54.1 in the series on Wheat [8] (soil applied, treated minus control 39); 1207.3 parts per million with Clover [9] (treated minus control 56.7); 776.4 parts per million in the series on Corn [10] (treated minus control 15.6). The “zinc in plant tissue, CHANGE” value with Soybean [11] (soil applied, treated minus control 19.4) turned out to be 116.6; in the series with Wheat [12] (treated minus control 44.3), 518.7 parts per million. The “zinc in plant tissue, %” value in the series on Corn [5] (soil applied, versus control 24) turned out to be 190%; in the series with Soybean [11] (soil applied, versus control 19.4), 601%. The “zinc in plant tissue, % change” value with Soybean [6] (versus control 63.8) is reported as 1467%; in the series on Clover [7] (soil applied, versus control 53.4), 333%; in the series on Wheat [8] (soil applied, versus control 39), 139%; with Corn [10] (versus control 15.6) it was 4977%.
Regarding `NCCO` [MEA, monoethanolamine, reference compound], the “redissolution of the precipitate on adding MEA” value in series [2] (MEA added to the potassium maleate / ferric nitrate / potassium phosphate mix at pH 10) is “The precipitate never went back into solution”.
As for `O=C([O-])CC(C(=O)[O-])N(CCO)C(CC(=O)[O-])C(=O)[O-].[K+].[K+].[K+].[K+]` (stereo not shown) [Example 41, N,N-disuccinic-amino-ethanol tetra potassium salt], the “appearance of solution / precipitates” value in series [2] is on record as “orange-red clear solution without precipitates”.
